For test [1], the system named is NCI-H716 cells. The test is described as follows: GLP-1 release from NCI-H716 cells. It counts as cell-based, Human. The note with it: NCI-H716 cells (FIG. 9). Here is the method: Human intestinal cell line NCI-H716 has been described as cellular model to assess compounds mimicking nutrient-mediated effect such as glucagon-like peptide-1 (GLP-1) secretion.
NCl-H716 cells (ATCC, Manassas) are cultured in Dulbecco's modified eagle's medium (DMEM) containing 10% (v/v) bovine serum, 2 mM L-glutamine, 100 IU/ml penicillin and 100 μg/ml streptomycin in 75 ml flask. Cell adhesion and endocrine differentiation is initiated by growing cells in 96-well plate coated with matrigel in High Glucose DMEM containing 10% (v/v) bovine serum, 2 mM L-glutamine, 100 IU/ml penicillin and 100 μg/ml streptomycin for 2 days. On day 2, the medium is removed and cells are washed once with a pre-warmed wash buffer (Phosphate Buffered salt solution). The wash solution is removed and the SCFA or the compounds of the invention, or a combination of both, are added at the desired concentration in High Glucose DMEM containing 0.1% (v/v) bovine serum and incubated for 2 hours at 37° C. The supernatants are collected in a container. Using the cell-free supernatants, the GLP-1 amount is assessed using a GLP-1 specific ELISA assay kit according the manufacturer's recommendations (ALPCON).

Test [2] deals with adipocytes isolated from normal rats. The test is described as follows: Lipolysis assay in isolated adipocytes (normal rats). As to conditions: adipocytes isolated from normal rats (FIGS. 6 and 7). It counts as cell-based. As to the method:
Isolated adipocytes were diluted to 5% in KRH-buffer and were pre-treated with compound of the invention (30 μM, 10 μM and 1 μM) for 30 min at 37° C./120 rpm. After the pre-treatment, Isoprenaline (1 μM) was added to the adipocytes followed by 30 min incubation at 37° C./150 rpm. The reactions were put on ice and the buffer was assayed spectrophotometrically for the production of […] from glycerol breakdown in reactions catalyzed by glycerol kinase and glycerol-3-phosphate dehydrogenase and/or Non Esterified Fatty Acid (NEFA). Each data point was investigated in triplicates in two independent experiments.

The test system of test [3] is normal diet fed mice. Put plainly: In vivo assay of anti-lipolytic activity in rodent model (plasma FFA). The note with it: orally administered, 50mg/kg, 15 minutes following the dosing, vs vehicle (FIG. 8). As to the method:
Male C57BL/6N wild-type are housed one per cage in a room maintained on a 12 h light/dark cycle under constant temperature (22-25° C.) with ad libitum access to food and water. The anti-lipolytic effects of the compounds of the invention are studied in awake mice. Animals are fasted overnight before experimental use. On the day of the experiment, animals are put in metabolic cages and left undisturbed to acclimate to the environment for 1-2 h. blood samples are taken at indicated time points from the intraorbital retrobulbar plexus. A 1% sodium citrate saline solution is used to flush the lines. A pre-treatment blood sample is obtained from each animal to determine baseline values for free fatty acids (FFA) and triglycerides (TG). Compounds of the invention are given via oral gavage, sc injection, iv injection or ip injection for each different series of experiments. Blood samples are collected into pre-cooled tubes pre-coated with heparin (200 μl blood, Li-heparin, Sarstedt) for determination triglycerides and glycerol and in tri-potassium EDTA added sodium fluoride (200 μl blood, K3-EDTA, 1.6 mg/mL+1% NaF, Sarstedt) for determination of plasma free fatty acids. The tubes are placed on wet ice pending processing. Blood samples will be centrifuged at 4000×g, at 4° C., 15 min the resulting plasma will be transferred into non-coated tubes and stored at −80° C. until analyses. […]

The target of test [4] is T1, human GPR43 receptor (hGPR43) (Homo sapiens, UniProt O15552).
T1 construct: expressed in transfected cells
T1 sequence (O15552 1-330): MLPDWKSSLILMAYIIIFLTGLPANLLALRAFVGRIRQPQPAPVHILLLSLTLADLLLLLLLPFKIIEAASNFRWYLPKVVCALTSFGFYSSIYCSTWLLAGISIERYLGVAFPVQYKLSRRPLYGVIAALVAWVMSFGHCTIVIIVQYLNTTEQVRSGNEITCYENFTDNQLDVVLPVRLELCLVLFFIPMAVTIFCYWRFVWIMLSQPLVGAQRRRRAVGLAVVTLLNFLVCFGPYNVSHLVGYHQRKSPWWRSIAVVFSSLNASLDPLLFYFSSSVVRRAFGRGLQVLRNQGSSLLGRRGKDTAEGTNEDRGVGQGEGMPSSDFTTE
Put plainly: GTPγS binding assay (SPA method). In kind it is biochemical. As to conditions: membranes expressing hGPR43; assay performed in the presence of SCFA; read-out: EC50 (nM) in GTPγ35S assay. An outline of the steps: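 Membranes (5 μg) from hGPR43-expressing cells were incubated 30 min at room temperature with [35S]GTPγS, compounds (30 μM to 1 nM) and WGA SPA beads. Buffer was 20 mM HEPES pH 7.4, 100 mM NaCl, 10 μg/ml saponin, 30 mM MgCl2 and 10 μM GDP, with SCFA present. Bound label was read by scintillation counting.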
Background: GTPγS is a poorly hydrolysed GTP analogue; its binding reports G protein activation.

The structures appear in SMILES notation. “Also recorded” adds a separate entry of the source.

For orientation: EC50 means the concentration giving half of the maximal effect.

Turning to `COc1ccc(-c2ccccc2-c2csc(N(C(=O)[C@@H](CC(=O)O)CC3CCCC3)C3CC3)n2)cn1` [Compound 169, (R)-3-(cyclopentylmethyl)-4-(cyclopropyl(4-(2-(6-methoxypyridin-3-yl)phenyl)thiazol-2-yl)amino)-4-oxobutanoic acid], the GLP-1 secretion entry in test [1] was “significantly increases”. The isoprenaline-induced lipolysis result in test [2] is “inhibit”. For the same compound, the “in vivo FFA baseline” value in test [3] is recorded as “inhibition; also recorded: inhibit”.
As for `O=C(O)C[C@@H](CC1CCCC1)C(=O)N(c1nc(-c2ccccc2-c2ccc(N3CCCC3=O)nc2)cs1)C1CC1` [Compound 183, (R)-3-(cyclopentylmethyl)-4-(cyclopropyl(4-(2-(6-(2-oxopyrrolidin-1-yl)pyridin-3-yl)phenyl)thiazol-2-yl)amino)-4-oxobutanoic acid], the isoprenaline-induced lipolysis result in test [2] is reported as “inhibit”. Also, the “in vivo FFA baseline” value in test [3] is listed as “inhibition; also recorded: inhibit”. Besides, the half-maximal effective concentration (EC50) in test [4] was found to be 57 nM.

For the origin of these results see patent publication US20110230477A1, “COMPOUNDS, PHARMACEUTICAL COMPOSITION AND METHODS FOR USE IN TREATING METABOLIC DISORDERS” (Euroscreen S.A., priority 2008, published 2011).
